Here are results for 2 compounds from US7939662B2, “Amorphous ziprasidone hydrochloride (5-[2-[4-(1,2-benzisothiazol-3-yl)-1-piperazinyl]ethyl]-6-chloro-1,3-dihydro-2H-indol-2-one hydrochloride) and processes to produce the same” (Apotex Pharmachem Inc., priority 2004, dated 2011).

For data set [1] the following is noted: crystalline monohydrate form; background statement; cited from earlier work.
For data set [2] the following is noted: as stated in U.S. Pat. No. 5,312,925; cited from earlier work.
A further data set can be described thus: aqueous solubility. The class given is physicochemical. The settings on record: relative to those of the prior art; no test described.

SMILES strings stand for the structures.

Take `Cl.O=C1Cc2cc(CCN3CCN(c4nsc5ccccc45)CC3)c(Cl)cc2N1` [ziprasidone hydrochloride monohydrate, 5-[2-[4-(1,2-benzisothiazol-3-yl)-1-piperazinyl]ethyl]-6-chloro-1,3-dihydro-2H-indol-2-one hydrochloride]: the aqueous solubility result in data set [1] is on record as “very low”. The hygroscopic stability result in data set [2] was “hygroscopically stable”.
Turning to `Cl.O=C1Cc2cc(CCN3CCN(c4nsc5ccccc45)CC3)c(Cl)cc2N1` [amorphous ziprasidone hydrochloride, 5-[2-[4-(1,2-benzisothiazol-3-yl)-1-piperazinyl]ethyl]-6-chloro-1,3-dihydro-2H-indol-2-one hydrochloride], the “water solubility relative to the prior art forms” value in “aqueous solubility” is on record as “better water solubility”.
